{"source": "patent US20160053227A1", "about": "“AGENT FOR INDUCING DIFFERENTIATION OF WHITE ADIPOCYTES INTO BROWN-LIKE ADIPOCYTES” (UHA MIKAKUTO CO., LTD., priority 2013, published 2016)", "key": {"[1]": {"experiment": "Physicochemical characteristics: solubility", "source_text": "The physicochemical characteristics of UHA4022 are as follows."}, "[2]": {"tested_on": "3T3-L1 precursor adipocyte", "experiment": "Example II-3: index gene expression in adipocytes after maturation, with or without adrenaline stimulation, real-time RT-PCR", "type": "cell-based, mouse", "conditions": "matured cells, 1 μM L-adrenaline for 2 hours; control 3.1 times", "protocol": "Since it was evaluated in Example II-2 whether the derivative-containing composition induces the differentiation from the white adipocytes into the brown-like adipocytes using the cells immediately after the induction of the differentiation, it was evaluated in Example II-3 whether the relevant induced cell maintains the trait of the brown-like adipocytes even after maturation using matured adipocytes. The evaluation was made using as indexes the expression level of each gene of FGF-21, PGC-1α, and cell death-inducing DFFA-like effector a (Cidea) which is a brown-like adipocyte marker gene as well as the expression level of […] gene when adding adrenaline to the adipocyte after maturation based on the understanding that the brown-like adipocyte responds to the adrenaline stimulation thereby increasing the expression level of UCP1 gene, whereby the induction of the differentiation of the white adipocytes into the brown-like adipocytes was confirmed. […]\nBased on the Ct values (Threshold Cycle: number of cycles for achieving a certain amplification level (threshold)) of […], FGF-21, PGC-1α, PGC-1β, Cidea, and UCP1 in each cell obtained, the relative value of each gene expression level of FGF-21, PGC-1β, PGC-1α, Cidea, and UCP1 was calculated."}}}
{"smiles": "Oc1ccc(/C=C\\c2c3c(cc4c2C(c2ccc(O)cc2)Cc2cc(O)cc(O)c2-4)-c2c(O)cc(O)cc2CC3c2ccc(O)cc2)cc1", "note": "(stereo not shown) [UHA4022]", "values": [{"measurement": "Solubility in chloroform", "setting": "[1]; Chloroform", "result": "Hardly soluble"}, {"measurement": "Solubility in DMSO", "setting": "[1]; DMSO", "result": "Soluble"}, {"measurement": "Solubility in ethanol", "setting": "[1]; Ethanol", "result": "Soluble"}, {"measurement": "Solubility in ethyl acetate", "setting": "[1]; Ethyl acetate", "result": "Hardly soluble"}, {"measurement": "Solubility in methanol", "setting": "[1]; Methanol", "result": "Soluble"}, {"measurement": "Solubility in water", "setting": "[1]; Water", "result": "Hardly soluble"}]}
{"smiles": "CN(CCOc1ccc(CC2SC(=O)NC2=O)cc1)c1ccccn1", "note": "(stereo not shown) [rosiglitazone]", "values": [{"measurement": "UCP1 gene expression-increasing effect of adrenaline, presence vs absence of adrenaline", "setting": "[2]", "result": 6.2, "unit": "times"}]}
